Laboratory results as given in paper PMC8466755, “GPCR Pharmacological Profiling of Aaptamine from the Philippine Sponge Stylissa sp. Extends Its Therapeutic Potential for Noncommunicable Diseases” (Molecules, 2021).
Converted amounts (≈) assume the structure as drawn. “Also recorded” adds a separate entry of the source.

Tests used:
Candida tropicalis = tested on: Candida tropicalis; design: method as in doi:10.1016/S0040-4020(03)01069-X; conditions: antifungal; cited from earlier work
[1] = tested on: HCT116 colon cancer cells; experiment: MTT cell viability assay, HCT116; type: cell-based, human
Method: Aaptamine was tested against HCT116 colon cancer cells and cell viability was assessed after 48 h using an MTT (3-(4,5-dimethyl dimethylthiazol-2-yl)-2,5-diphenyltetrazolium bromide) assay. […] The results agreed with the findings of Kobayashi et al. that aaptamine at concentrations of 20–50 µM increased the expression of the cyclin-dependent kinase inhibitor p21, a protein known to act as a negative regulator of cell cycle progression, thus preventing cell proliferation. […] To alternatively explain the activity of aaptamine, we tested the compound for its ability to inhibit the chymotrypsin-like activity of a purified 20S proteasome from human erythrocytes. Proteasome inhibitors are validated anticancer agents. Aaptamine was able to inhibit the enzyme activity by 41% at 50 µM (Figure 2b). […] In our study, aaptamine had similar IC50 values for cancer cell growth inhibition and proteasome inhibition in vitro (~50 µM).
Human colon carcinoma cells (HCT116) were cultured in Dulbecco’s modified Eagle’s medium (DMEM, Invitrogen, MA, USA), supplemented with 10% fetal bovine serum (FBS, Sigma-Aldrich, MO, USA) and 1% antibiotic-antimycotic (Invitrogen, MA, USA) humidified at 37 °C with 5% CO2. […] Detection was performed using a SpectraMax M5 spectrometer (Molecular Devices, CA, USA) at 570 nm and cell viability was calculated and expressed relative to the vehicle control.

OPRK1 [2] = biological target: T1, OPRK1 (Homo sapiens, UniProt P41145); experiment: PathHunter β-arrestin assay, positive allosteric modulation (PAM) mode; type: cell-based; conditions: dose-response, control agonist at EC20
T1 sequence (P41145 whole entry): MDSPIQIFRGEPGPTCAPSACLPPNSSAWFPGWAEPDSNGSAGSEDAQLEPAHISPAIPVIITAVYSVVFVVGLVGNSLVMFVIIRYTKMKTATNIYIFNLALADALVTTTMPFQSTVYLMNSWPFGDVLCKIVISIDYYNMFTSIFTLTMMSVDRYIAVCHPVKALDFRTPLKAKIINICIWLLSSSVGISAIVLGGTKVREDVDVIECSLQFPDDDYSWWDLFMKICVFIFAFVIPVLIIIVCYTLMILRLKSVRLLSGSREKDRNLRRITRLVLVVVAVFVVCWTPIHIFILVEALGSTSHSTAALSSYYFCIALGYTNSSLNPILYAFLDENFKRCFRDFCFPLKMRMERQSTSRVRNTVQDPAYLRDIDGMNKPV
Method: The assays were performed at 10-point concentrations using three-fold serial dilutions in duplicate. For all the assay formats, the final assay vehicle concentration was 1%.
For PAM assays, the cells were preincubated with the sample followed by agonist induction at the EC20 concentration. To the cells, 5 µL of 5X sample was added and incubated for 30 min at 37 °C or room temperature. Following the incubation period, 5 µL of the 6X EC20 agonist prepared in an assay buffer was added to the cells and incubated for 90 or 180 min at 37 °C or room temperature.

HTR1E = HTR1E (Homo sapiens, UniProt P28566); experiment: PathHunter β-arrestin primary screen, antagonist mode (potentiator hit); type: cell-based; conditions: control agonist at EC80, negative inhibition = potentiation, read-out: % Activation or inhibition, primary screen
Sequence of HTR1E (P28566 whole entry, the tested form may be a part): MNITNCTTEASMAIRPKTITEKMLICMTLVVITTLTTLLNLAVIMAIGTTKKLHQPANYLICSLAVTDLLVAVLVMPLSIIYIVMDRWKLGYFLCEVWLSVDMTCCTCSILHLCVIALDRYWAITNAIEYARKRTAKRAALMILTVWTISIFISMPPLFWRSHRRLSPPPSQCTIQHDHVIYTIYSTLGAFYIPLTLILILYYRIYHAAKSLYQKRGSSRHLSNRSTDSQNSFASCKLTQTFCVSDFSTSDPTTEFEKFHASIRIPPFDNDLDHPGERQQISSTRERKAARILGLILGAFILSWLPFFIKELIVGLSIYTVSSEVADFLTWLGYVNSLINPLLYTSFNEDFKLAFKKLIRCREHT
Method: (§1) Aaptamine (20 µM) was profiled in gpcrMAX panel biosensor assays (in agonist and antagonist modes) against a panel of 168 GPCRs. The assay was performed by DiscoverX Corporation (Fremont, CA) using PathHunter β -arrestin enzyme fragment complementation (EFC) technology, in a similar way to that described elsewhere. The PathHunter cell lines were taken from freezer stocks according to standard procedures. A total of 20 µL of cells were seeded into white 384-well plates and incubated at 37 °C for the appropriate time prior to testing.
(§2) For antagonist determination, PathHunter cells were preincubated with aaptamine followed by the addition of an agonist. In this assay format, the standard agonist was added at an EC80 concentration. To the plate that contained the cells, 5 µL of the 5X sample was added and incubated for 30 min at 37 °C or room temperature. After the incubation period, 5 µL of the 6X EC80 agonist in an assay buffer was added to the cells and incubated for additional 90 or 180 min at 37 °C or room temperature.

SSTR1 = SSTR1 (Homo sapiens, UniProt P30872); experiment: as above; type: cell-based; conditions: control agonist at EC80, negative inhibition = potentiation, read-out: % Activation or inhibition, primary screen
Sequence of SSTR1 (P30872 whole entry): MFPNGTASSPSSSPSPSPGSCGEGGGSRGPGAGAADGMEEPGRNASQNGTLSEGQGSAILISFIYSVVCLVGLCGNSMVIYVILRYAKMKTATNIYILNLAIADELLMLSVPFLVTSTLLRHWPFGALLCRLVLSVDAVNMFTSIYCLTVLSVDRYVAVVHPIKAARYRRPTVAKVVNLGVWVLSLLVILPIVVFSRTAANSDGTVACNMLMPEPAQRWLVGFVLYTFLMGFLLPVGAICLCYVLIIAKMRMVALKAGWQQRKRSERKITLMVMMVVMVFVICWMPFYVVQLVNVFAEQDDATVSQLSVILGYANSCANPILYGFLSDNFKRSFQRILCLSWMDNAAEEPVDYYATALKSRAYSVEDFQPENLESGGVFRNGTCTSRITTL
Method: as §1, §2

CXCR3 = biological target: T2, CXCR3 (Homo sapiens, UniProt P49682); experiment: as above; type: cell-based; conditions: control agonist at EC80, negative inhibition = potentiation, read-out: Primary Screen Maximal Response, % Inhibition or Activation
T2 sequence (P49682 1-368): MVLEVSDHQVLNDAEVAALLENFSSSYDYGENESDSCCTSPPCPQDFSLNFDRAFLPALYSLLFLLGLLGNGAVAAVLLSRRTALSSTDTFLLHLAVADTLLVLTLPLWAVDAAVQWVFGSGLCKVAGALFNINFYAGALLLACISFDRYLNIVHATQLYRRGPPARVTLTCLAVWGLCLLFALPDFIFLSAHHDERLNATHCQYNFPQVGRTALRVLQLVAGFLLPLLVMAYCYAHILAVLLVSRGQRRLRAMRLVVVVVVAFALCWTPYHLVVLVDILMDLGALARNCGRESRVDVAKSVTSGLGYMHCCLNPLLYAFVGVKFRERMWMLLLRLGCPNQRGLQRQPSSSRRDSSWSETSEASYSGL
Method: as §1, §2

OPRK1 [3] = biological target: T1, OPRK1; experiment: as above; type: cell-based; conditions: control agonist at EC80, negative inhibition = potentiation, read-out: % Activation or inhibition, primary screen
Method: as §1, §2

CCR3 = biological target: T3, CCR3 (Homo sapiens, UniProt P51677); experiment: as above; type: cell-based; conditions: control agonist at EC80, negative inhibition = potentiation, read-out: Primary Screen Maximal Response, % Inhibition or Activation
T3 sequence (P51677 1-355): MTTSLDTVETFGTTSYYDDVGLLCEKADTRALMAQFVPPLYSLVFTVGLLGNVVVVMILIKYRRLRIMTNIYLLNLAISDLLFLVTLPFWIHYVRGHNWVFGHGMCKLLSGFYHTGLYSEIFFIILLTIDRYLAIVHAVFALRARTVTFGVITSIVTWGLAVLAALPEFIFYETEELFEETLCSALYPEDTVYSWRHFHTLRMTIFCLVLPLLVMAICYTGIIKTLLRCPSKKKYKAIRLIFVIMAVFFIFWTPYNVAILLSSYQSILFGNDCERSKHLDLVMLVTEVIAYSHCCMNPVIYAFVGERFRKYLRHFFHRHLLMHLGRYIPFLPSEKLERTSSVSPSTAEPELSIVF
Method: as §1, §2

Question: Which MIC (Candida tropicalis) does the source give for `COc1cc2ccnc3c2c(c1OC)NC=C3` [aaptamine] here?
Answer: Its MIC is 110 µM (≈ 25.1 µg/mL).

Question: And the “reduction of viability of HCT116” value ([1]; 50 µM (highest concentration tested), 48 h, MTT)?
Answer: The value was 50%.

Question: What about the IC50 ([1]; Homo sapiens, HCT-116, HCT116, 48 h, read-out: IC50 cancer cell growth inhibition) of the same compound?
Answer: Its IC50 is about 50 µM.

Question: And the “validation of potentiator hit under PAM conditions” value (OPRK1 [2])?
Answer: Its value is “false positives; also recorded: did not validate”.

Question: What about the inhibition at 20 µM (HTR1E) of the same compound?
Answer: The inhibition at 20 µM was -47%.

Question: What about the inhibition at 20 µM (SSTR1) of the same compound?
Answer: The inhibition at 20 µM was -46%.

Question: And the Emax at 20 µM (CXCR3)?
Answer: The Emax at 20 µM was 69%.

Question: And the inhibition at 20 µM (OPRK1 [3])?
Answer: The inhibition at 20 µM was -46%.

Question: What about the Emax at 20 µM (CCR3) of the same compound?
Answer: The Emax at 20 µM was 49%.
